Assay results as given in PubChem BioAssay AID2060884 (Molecular Pharmacology Branch, DTP, NCI, 2025).
Several values for one entry are separate records, joined by “and”; a condition that tells them apart may be missing. Identical values can stand only once. Blank lines part the entries; values can stand above or below the molecule they belong to.

Tested on: NCI-H929 complex spheroids, viability % test/control
Assay: Anticancer human tumor NCI-H929 cell line growth inhibition [RAS];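 also: compound exposure lasted seven days before viability was read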;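 as to viability, T/C: 100% = DMSO vehicle control viability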
Details: for viability, T/C: stronger effect = lower value
Procedure, shortened: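 Agents were tested in combination matrices in half-log decrements from a top concentration at or near clinical Cmax (10 microM if undetermined). Targets were multi-cell spheroids of tumour lines plus HUVEC and MSC stromal cells.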

[1] = curve of first compound, second compound 0.000949 µM
[2] = curve of first compound, second compound 0.003 µM
[3] = curve of first compound, second compound 0.00949 µM
[4] = curve of first compound, second compound 0.03 µM
[5] = curve of first compound, second compound 0.0949 µM
[6] = curve of first compound, second compound 0.3 µM
[7] = second compound 0.000949 µM, first compound 0.00316 µM
[8] = second compound 0.000949 µM, first compound 0.01 µM
[9] = second compound 0.000949 µM, first compound 0.0316 µM
[10] = second compound 0.000949 µM, first compound 0.1 µM
[11] = second compound 0.000949 µM, first compound 0.316 µM
[12] = second compound 0.000949 µM, first compound 1 µM
[13] = second compound 0.003 µM, first compound 0.00316 µM
[14] = second compound 0.003 µM, first compound 0.01 µM
[15] = second compound 0.003 µM, first compound 0.0316 µM
[16] = second compound 0.003 µM, first compound 0.1 µM
[17] = second compound 0.003 µM, first compound 0.316 µM
[18] = second compound 0.003 µM, first compound 1 µM
[19] = second compound 0.00949 µM, first compound 0.00316 µM
[20] = second compound 0.00949 µM, first compound 0.01 µM
[21] = second compound 0.00949 µM, first compound 0.0316 µM
[22] = second compound 0.00949 µM, first compound 0.1 µM
[23] = second compound 0.00949 µM, first compound 0.316 µM
[24] = second compound 0.00949 µM, first compound 1 µM
[25] = second compound 0.03 µM, first compound 0.00316 µM
[26] = second compound 0.03 µM, first compound 0.01 µM
[27] = second compound 0.03 µM, first compound 0.0316 µM
[28] = second compound 0.03 µM, first compound 0.1 µM
[29] = second compound 0.03 µM, first compound 0.316 µM
[30] = second compound 0.03 µM, first compound 1 µM
[31] = second compound 0.0949 µM, first compound 0.00316 µM
[32] = second compound 0.0949 µM, first compound 0.01 µM
[33] = second compound 0.0949 µM, first compound 0.0316 µM
[34] = second compound 0.0949 µM, first compound 0.1 µM
[35] = second compound 0.0949 µM, first compound 0.316 µM
[36] = second compound 0.0949 µM, first compound 1 µM
[37] = second compound 0.3 µM, first compound 0.00316 µM
[38] = second compound 0.3 µM, first compound 0.01 µM
[39] = second compound 0.3 µM, first compound 0.0316 µM
[40] = second compound 0.3 µM, first compound 0.1 µM
[41] = second compound 0.3 µM, first compound 0.316 µM
[42] = second compound 0.3 µM, first compound 1 µM

IC50 (curve of first compound, second compound 0.00316 µM): 184 nM | IC50 (curve of first compound, second compound 0.01 µM): 190 nM | IC50 (curve of first compound, second compound 0.0316 µM): 189 nM | IC50 (curve of first compound, second compound 0.1 µM): 192 nM | IC50 (curve of first compound, second compound 0.316 µM): 184 nM | IC50 (curve of first compound, second compound 1 µM): 182 nM
SMILES: CC1(O)CCCC1n1c(=O)c(C(F)F)cc2cnc(NC3CCN(S(C)(=O)=O)CC3)nc21 (stereo not drawn) + C=CC(=O)N1CCN(c2nc(OCC3CCCN3C)nc3c(F)c(-c4nc(N)cc(C)c4C(F)(F)F)c(Cl)cc23)C(C)C1
viability, T/C (second compound 0.00316 µM, first compound 0.0316 µM): 115% | viability, T/C (second compound 0.00316 µM, first compound 0.1 µM): 101% | viability, T/C (second compound 0.00316 µM, first compound 0.316 µM): 4.56% | viability, T/C (second compound 0.00316 µM, first compound 1 µM): 8.72% | viability, T/C (second compound 0.00316 µM, first compound 3.16 µM): 2.59% | viability, T/C (second compound 0.00316 µM, first compound 10 µM): 0.82% | viability, T/C (second compound 0.01 µM, first compound 0.0316 µM): 112% | viability, T/C (second compound 0.01 µM, first compound 0.1 µM): 108% | viability, T/C (second compound 0.01 µM, first compound 0.316 µM): 3.89% | viability, T/C (second compound 0.01 µM, first compound 1 µM): 8.77% | viability, T/C (second compound 0.01 µM, first compound 3.16 µM): 3.05% | viability, T/C (second compound 0.01 µM, first compound 10 µM): 0.57% | viability, T/C (second compound 0.0316 µM, first compound 0.0316 µM): 107% | viability, T/C (second compound 0.0316 µM, first compound 0.1 µM): 107% | viability, T/C (second compound 0.0316 µM, first compound 0.316 µM): 3.77% | viability, T/C (second compound 0.0316 µM, first compound 1 µM): 9.13% | viability, T/C (second compound 0.0316 µM, first compound 3.16 µM): 2.62% | viability, T/C (second compound 0.0316 µM, first compound 10 µM): 0.19% | viability, T/C (second compound 0.1 µM, first compound 0.0316 µM): 109% | viability, T/C (second compound 0.1 µM, first compound 0.1 µM): 109% | viability, T/C (second compound 0.1 µM, first compound 0.316 µM): 4.89% | viability, T/C (second compound 0.1 µM, first compound 1 µM): 8.17% | viability, T/C (second compound 0.1 µM, first compound 3.16 µM): 2.43% | viability, T/C (second compound 0.1 µM, first compound 10 µM): 0.18% | viability, T/C (second compound 0.316 µM, first compound 0.0316 µM): 113% | viability, T/C (second compound 0.316 µM, first compound 0.1 µM): 101% | viability, T/C (second compound 0.316 µM, first compound 0.316 µM): 4.58% | viability, T/C (second compound 0.316 µM, first compound 1 µM): 9.4% | viability, T/C (second compound 0.316 µM, first compound 3.16 µM): 2.18% | viability, T/C (second compound 0.316 µM, first compound 10 µM): 0.46% | viability, T/C (second compound 1 µM, first compound 0.0316 µM): 121% | viability, T/C (second compound 1 µM, first compound 0.1 µM): 99.8% | viability, T/C (second compound 1 µM, first compound 0.316 µM): 4.25% | viability, T/C (second compound 1 µM, first compound 1 µM): 7.11% | viability, T/C (second compound 1 µM, first compound 3.16 µM): 2.09% | viability, T/C (second compound 1 µM, first compound 10 µM): 0.13%

IC50 [1]: 663 nM | IC50 [2]: 688 nM | IC50 [3]: 686 nM | IC50 [4]: 661 nM | IC50 [5]: 636 nM | IC50 [6]: 597 nM
SMILES: O=C(c1ccc(F)c(F)c1Nc1ccc(I)cc1F)N1CC(O)([C@@H]2CCCCN2)C1 + CCn1c(-c2cccnc2C(C)OC)c2c3cc(ccc31)N1CCOC(CC(NC(=O)C(C(C)C)N(C)C(=O)C3(F)CCN(C(=O)C#CC(C)(C)N(C)C)CC3)C(=O)N3CCCC(N3)C(=O)OCC(C)(C)C2)C1
viability, T/C [7]: 109% | viability, T/C [8]: 97.9% | viability, T/C [9]: 103% | viability, T/C [10]: 92.5% | viability, T/C [11]: 98.3% | viability, T/C [12]: 23.2% | viability, T/C [13]: 99.2% | viability, T/C [14]: 102% | viability, T/C [15]: 101% | viability, T/C [16]: 93.7% | viability, T/C [17]: 98.4% | viability, T/C [18]: 26.8% | viability, T/C [19]: 97.2% | viability, T/C [20]: 102% | viability, T/C [21]: 104% | viability, T/C [22]: 95.1% | viability, T/C [23]: 101% | viability, T/C [24]: 25.5% | viability, T/C [25]: 98.6% | viability, T/C [26]: 100% | viability, T/C [27]: 102% | viability, T/C [28]: 96.9% | viability, T/C [29]: 101% | viability, T/C [30]: 21.8% | viability, T/C [31]: 96.6% | viability, T/C [32]: 99.7% | viability, T/C [33]: 101% | viability, T/C [34]: 98.4% | viability, T/C [35]: 103% | viability, T/C [36]: 17.7% | viability, T/C [37]: 100% | viability, T/C [38]: 101% | viability, T/C [39]: 101% | viability, T/C [40]: 100% | viability, T/C [41]: 105% | viability, T/C [42]: 8.18%

IC50 (curve of compound): > 10000 nM
SMILES: C[C@@H](NC(=O)c1ncnc(N)c1Cl)c1ncc(C(=O)Nc2cc(C(F)(F)F)c(Cl)cn2)s1
viability, T/C (compound 0.0316 µM): 106% [middle of 4 runs] | viability, T/C (compound 0.1 µM): 103% (2×) and 98.6% and 92.7% | viability, T/C (compound 0.316 µM): 98.6% [middle of 4 runs] | viability, T/C (compound 1 µM): 95.3% [middle of 4 runs] | viability, T/C (compound 3.16 µM): 97.7% [middle of 4 runs] | viability, T/C (compound 10 µM): 108% [middle of 4 runs]

IC50 [1]: 776 nM | IC50 [2]: 746 nM | IC50 [3]: 814 nM | IC50 [4]: 734 nM | IC50 [5]: 662 nM | IC50 [6]: 619 nM
SMILES: CCN1CCN(Cc2ccc(Nc3ncc(F)c(-c4cc(F)c5nc(C)n(C(C)C)c5c4)n3)nc2)CC1 + CCn1c(-c2cccnc2C(C)OC)c2c3cc(ccc31)N1CCOC(CC(NC(=O)C(C(C)C)N(C)C(=O)C3(F)CCN(C(=O)C#CC(C)(C)N(C)C)CC3)C(=O)N3CCCC(N3)C(=O)OCC(C)(C)C2)C1
viability, T/C [7]: 105% | viability, T/C [8]: 97.9% | viability, T/C [9]: 105% | viability, T/C [10]: 101% | viability, T/C [11]: 104% | viability, T/C [12]: 35.1% | viability, T/C [13]: 103% | viability, T/C [14]: 101% | viability, T/C [15]: 103% | viability, T/C [16]: 105% | viability, T/C [17]: 106% | viability, T/C [18]: 31.7% | viability, T/C [19]: 96.8% | viability, T/C [20]: 104% | viability, T/C [21]: 99.9% | viability, T/C [22]: 104% | viability, T/C [23]: 107% | viability, T/C [24]: 38.6% | viability, T/C [25]: 97.4% | viability, T/C [26]: 101% | viability, T/C [27]: 106% | viability, T/C [28]: 101% | viability, T/C [29]: 108% | viability, T/C [30]: 30.8% | viability, T/C [31]: 99.4% | viability, T/C [32]: 99.5% | viability, T/C [33]: 102% | viability, T/C [34]: 103% | viability, T/C [35]: 104% | viability, T/C [36]: 21.2% | viability, T/C [37]: 98.7% | viability, T/C [38]: 104% | viability, T/C [39]: 105% | viability, T/C [40]: 106% | viability, T/C [41]: 109% | viability, T/C [42]: 11.2%
